In patent US9101671B2, “Methods and compositions related to clot binding compounds” (Sanford-Burnham Medical Research Institute, priority 2007, dated 2015):
Where no end group is shown, it is not given here.

What was measured:
platelets = experiment: Role of platelets in nanoparticle homing; format: in vivo, mice; conditions: platelet depletion with anti-CD41 monoclonal antibody
Description: (A). Blood was drawn 5 min post-injection of 4 mg/kg of CREKA-SPIO into mice and a 50 μl aliquot was run through a magnetic column. Bound CREKA-SPIO particles were eluted form the column, concentrated on a slide, and stained with anti-CD41 antibody. Some of the particles appear to be associated with platelets. (B). A low-magnification image (40×) showing CREKA-SPIO homing and clot formation in a tumor from a platelet-depleted mouse. Platelet depletion was accomplished by treating mice with 0.1 mg of an anti-CD41 monoclonal antibody as described (Van der Heyde and Gramaglia (2005)). The mice subsequently received Ni-liposomes/CREKA-SPIO as described in the legend of FIG. 2.

tumor blood vessels = experiment: Intravital confocal microscopy of tumor blood flow; format: in vivo, mice; conditions: 4 mg/kg i.v.; Ni-liposome pre-injection; DiI-labeled erythrocytes as flow marker
Description: (§1) Mice bearing MDA-MB-435 xenografts were injected with Ni-liposomes and CREKA-SPIO nanoparticles as described in the legend to FIG. 2. The mice were perfused 6 hours after the nanoparticle injection and tissues were collected. (A) Upper panels: Co-localization of nanoparticle fluorescence with CD31 staining in blood vessels; Middle panels: Co-localization of nanoparticle fluorescence and anti-fibrin(ogen) staining in tumor blood vessels. Inset—an image showing CREKA-SPIO distributed along fibrils in a tumor blood vessel; Lower panels: Lack of co-localization of nanoparticle fluorescence with anti-CD41 staining for platelets. (B) Intravital confocal microscopy of tumors using DiI-stained red blood cells as a marker of blood flow. The arrow points to a vessel in which stationary erythrocytes indicate obstruction of blood flow. Blood flow in the vessel above is not obstructed. Six successive frames from a 1-min movie (Movie 2 in Supplementary Material) are shown. (C) CREKA-coated liposomes co-localize with fibrin in tumor vessels. The results are representative of 3 independent experiments. Magnification: A and C, 600×, B, 200×.
Tumor blood flow in MDA-MB 435 xenograft-bearing mice was observed by intravital microscopy. Mice were pre-injected with Ni-liposomes and 5×10^8 of DiI-labeled erythrocytes. […] Movies were recorded at 10 min intervals up to 120 min post-injection.

[1] = Nanoparticle clearance (plasma circulation half-life); format: in vivo, mice
[2] = test system: MDA-MB-435 human breast cancer xenografts; experiment: Tumor magnetization by SQUID magnetometer; format: in vivo, mice
Description: Mice bearing MDA-MB-435 human breast cancer xenografts were intravenously injected with PBS or a bolus of 800 U/kg of heparin followed 120 min later by Ni-liposomes (or PBS) and CREKA-SPIO (or control nanoparticles). The mice received additional heparin by intraperitoneal injections (a total of 1000 U/kg) or PBS throughout the experiment. (A) Tumors were removed 6 hours after the nanoparticle injection, and magnetic signal in the tumor after different treatments was determined with SQUID. Aminated dextran SPIO served as a particle control (control SPIO). […] The magnetization values were normalized to dry weight of the tissue. Results from 3 experiments are shown. (B) Quantification of heparin effect on clotting in blood vessels. Mice were pretreated with PBS (white bars) or heparin (black bars) as described above, followed by Ni liposomes/CREKA-SPIO nanoparticles. Three sections from two tumors representing each treatment were stained with anti-CD31 for blood vessels, and the percentage of vessels positive for fluorescence and fluorescent clots was determined. […] (C) A representative example of the appearance of CREKA-SPIO particles in tumor vessels of mice treated with heparin. (D) Near-infrared imaging of mice that received Ni-liposomes followed by Cy7-labeled CREKA-SPIO with or without heparin pretreatment. […]

tumor vessels = experiment: Nanoparticle-induced blood clotting in vessels (fibrin(ogen)/CD31 staining, microscopy); format: in vivo, mice
Description: as §1
Mice bearing MDA-MB-435 human breast cancer xenografts were intravenously injected with PBS or a bolus of 800 U/kg of heparin followed 120 min later by Ni-liposomes (or PBS) and CREKA-SPIO (or control nanoparticles). The mice received additional heparin by intraperitoneal injections (a total of 1000 U/kg) or PBS throughout the experiment. (A) Tumors were removed 6 hours after the nanoparticle injection, and magnetic signal in the tumor after different treatments was determined with SQUID. Aminated dextran SPIO served as a particle control (control SPIO). […] The magnetization values were normalized to dry weight of the tissue. Results from 3 experiments are shown. (B) Quantification of heparin effect on clotting in blood vessels. Mice were pretreated with PBS (white bars) or heparin (black bars) as described above, followed by Ni liposomes/CREKA-SPIO nanoparticles. Three sections from two tumors representing each treatment were stained with anti-CD31 for blood vessels, and the percentage of vessels positive for fluorescence and fluorescent clots was determined. […] (C) A representative example of the appearance of CREKA-SPIO particles in tumor vessels of mice treated with heparin. (D) Near-infrared imaging of mice that received Ni-liposomes followed by Cy7-labeled CREKA-SPIO with or without heparin pretreatment. The images were acquired 8 hours after the injection of the CREKA-SPIO particles using an Odyssey 2 NIR scanner (Li-COR Biosciences, Lincoln, Nebr.). The images shown are composites of 2 colors, red (700 nm channel, body and chow autofluorescence) and green (800 nm channel, Cy7). Arrows point to the tumors, arrowheads to the liver. Note the strong decrease in signal from the tumor in the heparin-pretreated mouse. A representative experiment out of 3 is shown.
The low magnification (40×) was used to produce these images because only blood vessels in which clotting had concentrated the CREKA-SPIO fluorescence are visible at this magnification. […]
For intravenous injections, the animals were anesthetized with intraperitoneal Avertin, and liposomes (2 μmol DSPC) and/or nanoparticles (1-4 mg Fe/kg body weight) were injected into the tail vein. The animals were sacrificed 5-24 h post-injection by cardiac perfusion with PBS under anesthesia, and organs were dissected and analyzed for particle homing. […]

human plasma clots = experiment: Nanoparticle binding to human plasma clots in vitro
Description: (§2) Phage binding to clotted plasma proteins was determined as described (Pilch 2006). CREKA-SPIO and control SPIO were added to freshly formed plasma clots in the presence or absence of free CREKA peptide. After 10 min incubation, the clots were washed 4 times in PBS, transferred to a new tube and digested in 100 μl concentrated nitric acid. The digested material was diluted in 2 ml distilled water and the iron concentration was determined using inductively coupled plasma-optical emission spectroscopy (ICP-OES, PerkinElmer, Norwalk, Conn.).

[3] = test system: MDA-MB-435 breast cancer xenografts; experiment: Tumor homing and tissue distribution of intravenously injected particles (fluorescence microscopy); format: in vivo, mice
Description: CREKA-SPIO particles were intravenously injected (4 mg Fe/kg) into Balb/c nude mice bearing MDA-MB-435 human breast cancer xenograft tumors measuring 1-1.5 cm in diameter. The mice were sacrificed by perfusion 5-6 hours later and tissues were examined for CREKA-SPIO fluorescence (green). Nuclei were stained with DAPI (blue). (A) Distribution of CREKA-SPIO in tissues from MDA-MB-435 tumor mice that received 2 hours earlier an injection of PBS (A, upper panels) or Ni/DSPC/CHOL liposomes (Ni-liposomes) containing 0.2 μmol Ni in 200 μl of PBS (A, lower panels). (B) Plasma circulation half-life of CREKA-SPIO following different treatments. At least 4 time points were collected. Data were fitted to mono-exponential decay using Prizm software (GraphPad, San Diego, Calif.), and the half-life values were compared in unpaired t-test (***p<0.0001, n=10). (C) Accumulation of CREKA-SPIO nanoparticles in tumor vessels. Mice were injected and tissues collected as in panel A. Fluorescent intravascular CREKA-SPIO particles overlap with iron oxide viewed in transmitted light. Magnification: 600×. (D) Control organs of Ni-liposome/CREKA-SPIO-injected mice. Occasional spots of fluorescence are seen in the kidneys and lungs. […] Representative results from at least 3 independent experiments are shown. Magnification A and D, 200×; C, 600×.
For intravenous injections, the animals were anesthetized with intraperitoneal Avertin, and liposomes (2 μmol DSPC) and/or nanoparticles (1-4 mg Fe/kg body weight) were injected into the tail vein. The animals were sacrificed 5-24 h post-injection by cardiac perfusion with PBS under anesthesia, and organs were dissected and analyzed for particle homing. To suppress liver macrophages, mice were intravenously injected with liposomal clodronate suspension (100 μl per mouse), and the mice were used for experiments 24 hours later.

mouse plasma clots = experiment: Nanoparticle binding to mouse plasma clots in vitro
Description: as §2

[4] = plain liposomes as decoy particles, injected before
[5] = after Ni-liposome pre-treatment
[6] = intravenous injection, no decoy pretreatment

CREKA-SPIO: Fluorescein-labeled CREKA coupled onto 50 nm superparamagnetic, amino dextran-coated iron oxide nanoparticles; at least 8,000 peptide molecules per particle (Fluorescein-CREKA; not fully specified; printed as fluorescein-CREKA; also: coupled to amino dextran-coated iron oxide nanoparticle)
effect of thrombocytopenia on homing to MDA-MB-435 tumors (platelets): no noticeable effect | clot formation and blood flow in tumor blood vessels (tumor blood vessels): time-dependent clot formation and obstruction of blood flow | prolongation in particle half-life ([1]; RES macrophages in the liver depleted with liposomal clodronate): ~5 fold | blood half-life [1, 4]: prolonged the blood half-life | prolongation of half-life in the blood ([1]; pretreatment with intravenously injected Ni-liposomes): about 5 factor | greater accumulation in tumor, Ni-liposome-pretreated compared to PBS-pretreated mice ([2]; SQUID and fluorescence signal, tumors removed 6 hours after injection): about 6 fold | reduction of tumor accumulation of nanoparticles by heparin ([2]; heparin injected prior to CREKA-SPIO, SQUID): more than 50% | tumor vessel lumens filled with fluorescent masses (occlusion) (tumor vessels; after liposome pretreatment): up to 20% | intravascular clotting, effect of heparin (tumor vessels; heparin pretreatment): essentially eliminated the intravascular clotting | number of vessels with nanoparticles bound to the vessel walls, effect of heparin (tumor vessels; heparin pretreatment): did not significantly reduce | colocalization of fibrin(ogen) staining and particle fluorescence in liver vessels (tumor vessels; liver): no colocalization | clotting in kidneys and lungs (non-RES tissues) (tumor vessels; low magnification images): no clotting in these tissues, with the exception of very rare clots in the kidneys | binding to plasma clots (human plasma clots): bound to mouse and human plasma clots | tumor homing ([3]; Ni-liposome pretreatment 5 min or 48 h prior to injection): greatly increased the tumor homing | accumulation in the spleen [3, 5]: unchanged or even enhanced | particles in the liver [3, 5]: Fewer particles | accumulation in tumor [3, 6]: did not accumulate effectively | particles in reticuloendothelial system (RES) tissues [3, 6]: high concentration of particles | tumor homing [3, 4]: prolonged the blood half-life and tumor homing | particles in other organs ([3]; whether Ni-liposomes were used or not): minor amounts of CREKA-SPIO particles or no particles at all | binding to plasma clots (mouse plasma clots): bound to mouse and human plasma clots
